Assay results published in ChEMBL document CHEMBL1201862, “PubChem BioAssay data set” (2004).
Values joined by “and” are separate entries in the source; they are usually repeats but may differ in a detail not shown here. Identical values can stand only once.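 Values below derive from 48-hour exposures of cells grown in 96-well plates, with endpoints linearly interpolated between the two concentrations bracketing the appropriate inhibition level. Here, GI50 denotes the concentration required for 50% inhibition of growth.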 Active and inactive are the calls of the source. No stated cut-off is given here; in the data, active = GI50 up to about 1.1 µM and inactive = higher.

Legend:
Assay in all cases: growth of human tumour cells (NCI), 48 h
SK-OV-3 = system: SK-OV-3
OVCAR-3 = system: OVCAR-3
NCI-H226 = system: NCI-H226
SF-295 = system: SF-295
UACC-62 = system: UACC-62
RXF 393 = system: RXF 393
SNB-75 = system: SNB-75
HCT-116 = system: HCT-116
LOX IMVI = system: LOX IMVI
DU-145 = system: DU-145
CCRF-CEM = system: CCRF-CEM
SR = system: SR
MDA-N = system: MDA-N
SK-MEL-28 = system: SK-MEL-28
NCI-H460 = system: NCI-H460
786-0 = system: 786-0
ACHN = system: ACHN
MDA-MB-435 = system: MDA-MB-435
SN12C = system: SN12C
NCI-H23 = system: NCI-H23
SW-620 = system: SW-620
M14 = system: M14
MOLT-4 = system: MOLT-4
TK-10 = system: TK-10
SNB-19 = system: SNB-19
HCC 2998 = system: HCC 2998
HCT-15 = system: HCT-15
COLO 205 = system: COLO 205
K562 = system: K562
PC-3 = system: PC-3
CAKI-1 = system: CAKI-1
OVCAR-4 = system: OVCAR-4
IGROV-1 = system: IGROV-1
BT-549 = system: BT-549
SK-MEL-5 = system: SK-MEL-5
U-251 = system: U-251
MDA-MB-231 = system: MDA-MB-231
NCI-H522 = system: NCI-H522
UO-31 = system: UO-31
EKVX = system: EKVX
OVCAR-5 = system: OVCAR-5
HT-29 = system: HT-29
KM12 = system: KM12
OVCAR-8 = system: OVCAR-8
A549 = system: A549
MCF7 = system: MCF7
SK-MEL-2 = system: SK-MEL-2
T47D = system: T47D
NCI/ADR-RES = system: NCI/ADR-RES
UACC-257 = system: UACC-257
HOP-62 = system: HOP-62
Malme-3M = system: Malme-3M
SF-539 = system: SF-539
Hs-578T = system: Hs-578T
SF-268 = system: SF-268
HOP-92 = system: HOP-92
RPMI-8226 = system: RPMI-8226
HL-60 = system: HL-60
A498 = system: A498

Structure (SMILES): CCC1(O)CC(CCN(Cc2ccccc2)C(=O)OCc2ccccc2)C(OCc2ccccc2)C1O (stereo not given)
- GI50 (SK-OV-3): 17.4 µM (inactive)
- GI50 (OVCAR-3): 13 µM (inactive)
- GI50 (NCI-H226): 10.7 µM (inactive)
- GI50 (SF-295): 11.1 µM (inactive)
- GI50 (UACC-62): 12.9 µM (inactive)
- GI50 (RXF 393): 16.3 µM (inactive)
- GI50 (SNB-75): 12.5 µM (inactive)
- GI50 (HCT-116): 17.5 µM (inactive)
- GI50 (LOX IMVI): 21.9 µM (inactive)
- GI50 (DU-145): 18.5 µM (inactive)
- GI50 (CCRF-CEM): 16.1 µM (inactive)
- GI50 (SR): 12.2 µM (inactive)
- GI50 (MDA-N): 26.8 µM (inactive)
- GI50 (SK-MEL-28): 15.7 µM (inactive)
- GI50 (NCI-H460): 13.4 µM (inactive)
- GI50 (786-0): 17.2 µM (inactive)
- GI50 (ACHN): 17 µM (inactive)
- GI50 (MDA-MB-435): 18.4 µM (inactive)
- GI50 (SN12C): 24.4 µM (inactive)
- GI50 (NCI-H23): 14 µM (inactive)
- GI50 (SW-620): 36.1 µM (inactive)
- GI50 (M14): 15.5 µM (inactive)
- GI50 (MOLT-4): 1.93 µM (inactive)
- GI50 (TK-10): 16.5 µM (inactive)
- GI50 (SNB-19): 15.6 µM (inactive)
- GI50 (HCC 2998): 14 µM (inactive)
- GI50 (HCT-15): 13.4 µM
- GI50 (COLO 205): 16.2 µM (inactive)
- GI50 (K562): 4.69 µM (inactive)
- GI50 (PC-3): 10.7 µM (inactive)
- GI50 (CAKI-1): 25.3 µM (inactive)
- GI50 (OVCAR-4): 7.66 µM (inactive)
- GI50 (IGROV-1): 20.4 µM (inactive)
- GI50 (BT-549): 13 µM (inactive)
- GI50 (SK-MEL-5): 15.1 µM (inactive)
- GI50 (U-251): 27.9 µM (inactive)
- GI50 (MDA-MB-231): 27.2 µM (inactive)
- GI50 (NCI-H522): 10.1 µM (inactive)
- GI50 (UO-31): 16.2 µM (inactive)
- GI50 (EKVX): 15.7 µM (inactive)
- GI50 (OVCAR-5): 17.7 µM (inactive)
- GI50 (HT-29): 15.3 µM (inactive)
- GI50 (KM12): 12.7 µM (inactive)
- GI50 (OVCAR-8): 15.6 µM (inactive)
- GI50 (A549): 9.93 µM (inactive)
- GI50 (MCF7): 6.38 µM (inactive)
- GI50 (SK-MEL-2): 14.4 µM (inactive)
- GI50 (T47D): 12.2 µM (inactive)
- GI50 (NCI/ADR-RES): 10.8 µM (inactive)
- GI50 (UACC-257): 16.1 µM (inactive)
- GI50 (HOP-62): 14.5 µM (inactive)

Structure (SMILES): CCN(CC)c1ccc(C2SCC(=O)N2c2ccc(NC(=O)c3ccc(N4C(=O)CSC4c4ccc(N(CC)CC)cc4)cc3)cc2)cc1 (stereo not given)
- GI50 (SK-OV-3): > 100 µM (inactive)
- GI50 (OVCAR-3): 71.4 µM (inactive)
- GI50 (SF-295): 30.1 µM (inactive)
- GI50 (UACC-62): > 100 µM (inactive)
- GI50 (RXF 393): > 100 µM (inactive)
- GI50 (SNB-75): > 100 µM (inactive)
- GI50 (HCT-116): > 100 µM (inactive)
- GI50 (LOX IMVI): 67 µM (inactive)
- GI50 (DU-145): > 100 µM (inactive)
- GI50 (CCRF-CEM): 35.5 µM (inactive)
- GI50 (SK-MEL-28): > 100 µM (inactive)
- GI50 (NCI-H460): > 100 µM (inactive)
- GI50 (786-0): > 100 µM (inactive)
- GI50 (ACHN): > 100 µM (inactive)
- GI50 (MDA-MB-435): > 100 µM (inactive)
- GI50 (SN12C): > 100 µM (inactive)
- GI50 (NCI-H23): > 100 µM (inactive)
- GI50 (SW-620): > 100 µM (inactive)
- GI50 (Malme-3M): > 100 µM (inactive)
- GI50 (M14): > 100 µM (inactive)
- GI50 (MOLT-4): 29.7 µM (inactive)
- GI50 (TK-10): > 100 µM (inactive)
- GI50 (SNB-19): > 100 µM (inactive)
- GI50 (HCC 2998): > 100 µM (inactive)
- GI50 (HCT-15): > 100 µM
- GI50 (COLO 205): > 100 µM (inactive)
- GI50 (K562): 47.6 µM (inactive)
- GI50 (PC-3): > 100 µM (inactive)
- GI50 (CAKI-1): > 100 µM (inactive)
- GI50 (OVCAR-4): 70.8 µM (inactive)
- GI50 (IGROV-1): > 100 µM (inactive)
- GI50 (BT-549): > 100 µM (inactive)
- GI50 (SK-MEL-5): > 100 µM (inactive)
- GI50 (U-251): > 100 µM (inactive)
- GI50 (MDA-MB-231): > 100 µM (inactive)
- GI50 (NCI-H522): > 100 µM (inactive)
- GI50 (SF-539): > 100 µM (inactive)
- GI50 (UO-31): > 100 µM (inactive)
- GI50 (EKVX): > 100 µM (inactive)
- GI50 (OVCAR-5): > 100 µM (inactive)
- GI50 (HT-29): 75 µM (inactive)
- GI50 (KM12): 96.8 µM (inactive)
- GI50 (OVCAR-8): > 100 µM (inactive)
- GI50 (A549): > 100 µM (inactive)
- GI50 (Hs-578T): > 100 µM (inactive)
- GI50 (MCF7): 79.4 µM (inactive)
- GI50 (SK-MEL-2): > 100 µM (inactive)
- GI50 (T47D): 26.2 µM (inactive)
- GI50 (NCI/ADR-RES): > 100 µM (inactive)
- GI50 (UACC-257): > 100 µM (inactive)
- GI50 (HOP-62): 89.7 µM (inactive)
- GI50 (SF-268): > 100 µM (inactive)
- GI50 (HOP-92): > 100 µM (inactive)

Structure (SMILES): Cc1ccc(OCC2OC(C#N)C(Oc3ccc(C)cc3)C2Oc2ccc(C)cc2)cc1 (stereo not given)
- GI50 (SK-OV-3): > 100 µM (inactive)
- GI50 (OVCAR-3): > 100 µM (inactive)
- GI50 (NCI-H226): > 100 µM (inactive)
- GI50 (SF-295): > 100 µM (inactive)
- GI50 (UACC-62): > 100 µM (inactive)
- GI50 (RXF 393): > 100 µM (inactive)
- GI50 (SNB-75): 6.79 µM (inactive)
- GI50 (HCT-116): > 100 µM (inactive)
- GI50 (DU-145): > 100 µM (inactive)
- GI50 (CCRF-CEM): > 100 µM (inactive)
- GI50 (SR): > 100 µM (inactive)
- GI50 (SK-MEL-28): > 100 µM (inactive)
- GI50 (NCI-H460): > 100 µM (inactive)
- GI50 (786-0): > 100 µM (inactive)
- GI50 (MDA-MB-435): > 100 µM (inactive)
- GI50 (SN12C): > 100 µM (inactive)
- GI50 (NCI-H23): > 100 µM (inactive)
- GI50 (SW-620): > 100 µM (inactive)
- GI50 (M14): > 100 µM (inactive)
- GI50 (MOLT-4): > 100 µM (inactive)
- GI50 (SNB-19): > 100 µM (inactive)
- GI50 (HCC 2998): > 100 µM (inactive)
- GI50 (HCT-15): > 100 µM
- GI50 (COLO 205): > 100 µM (inactive)
- GI50 (K562): > 100 µM (inactive)
- GI50 (PC-3): > 100 µM (inactive)
- GI50 (RPMI-8226): > 100 µM (inactive)
- GI50 (CAKI-1): > 100 µM (inactive)
- GI50 (OVCAR-4): > 100 µM (inactive)
- GI50 (IGROV-1): > 100 µM (inactive)
- GI50 (BT-549): > 100 µM (inactive)
- GI50 (SK-MEL-5): > 100 µM (inactive)
- GI50 (U-251): > 100 µM (inactive)
- GI50 (HL-60): > 100 µM (inactive)
- GI50 (MDA-MB-231): > 100 µM (inactive)
- GI50 (NCI-H522): > 100 µM (inactive)
- GI50 (SF-539): > 100 µM (inactive)
- GI50 (A498): > 100 µM (inactive)
- GI50 (UO-31): > 100 µM (inactive)
- GI50 (EKVX): > 100 µM (inactive)
- GI50 (OVCAR-5): > 100 µM (inactive)
- GI50 (HT-29): > 100 µM (inactive)
- GI50 (KM12): > 100 µM (inactive)
- GI50 (OVCAR-8): > 100 µM (inactive)
- GI50 (A549): > 100 µM (inactive)
- GI50 (Hs-578T): > 100 µM (inactive)
- GI50 (MCF7): > 100 µM (inactive)
- GI50 (SK-MEL-2): 51.8 µM (inactive)
- GI50 (T47D): > 100 µM (inactive)
- GI50 (NCI/ADR-RES): > 100 µM (inactive)
- GI50 (HOP-62): > 100 µM (inactive)
- GI50 (SF-268): > 100 µM (inactive)

Structure (SMILES): COc1cccc(-c2cc(O)c3cc(N(C)C)ccc3n2)c1
- GI50 (NCI-H226): 37.6 nM (active) and 23.7 nM (active)
- GI50 (RXF 393): 1.76 nM (active) and 18.8 nM (active)
- GI50 (MDA-N): 1.24 nM (active) and 2.27 nM (active)
- GI50 (MDA-MB-435): 2.68 nM (active) and 1.39 nM (active)
- GI50 (SN12C): 44.9 nM (active) and 24.3 nM (active)
- GI50 (NCI-H23): 31.4 nM (active) and 37.4 nM (active)
- GI50 (SNB-19): 30.4 nM (active) and 28.2 nM (active)
- GI50 (HCT-15): 0.00925 µM and 0.0116 µM
- GI50 (RPMI-8226): 30.2 nM (active) and 37.2 nM (active)
- GI50 (OVCAR-4): 4.95 µM (inactive) and 7.4 µM (inactive)
- GI50 (BT-549): 0.681 µM (active)
- GI50 (MDA-MB-231): 42.7 nM (active) and 25.8 nM (active)
- GI50 (A498): < 0.01 µM (active)
- GI50 (OVCAR-5): 48.1 nM (active) and 41.5 nM (active)
- GI50 (HT-29): 22.9 nM (active) and 14 nM (active)
- GI50 (OVCAR-8): 32.2 nM (active) and 18.2 nM (active)
- GI50 (T47D): > 10 µM (inactive)
- GI50 (UACC-257): 10.2 nM (active) and 5.13 nM (active)
- GI50 (HOP-62): 25.6 nM (active) and 16.7 nM (active)
